Measured values: PubChem BioAssay AID1963972 (Molecular Pharmacology Branch, DTP, NCI, 2024)

System: 945468-187-T-J2-PDC spheroids viability
Assay: Anticancer human tumor 945468-187-T-J2-PDC patient-derived rectal carcinoma cell line growth inhibition [PI3K]
Conditions: spheroids with HUVEC and MSC; for IC50: curve of first compound; for viability, T/C: stronger effect = lower value
Outline: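 Three cell types, namely tumor cells, endothelial cells and mesenchymal stem cells, formed each spheroid. Combinations with four PI3K inhibitors were screened at clinically achievable concentrations decreasing by half-log, and spheroid viability was recorded.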

[1] = second compound 0.00316 µM, first compound 0.0316 µM
[2] = second compound 0.00316 µM, first compound 0.1 µM
[3] = second compound 0.00316 µM, first compound 0.316 µM
[4] = second compound 0.00316 µM, first compound 1 µM
[5] = second compound 0.00316 µM, first compound 3.16 µM
[6] = second compound 0.00316 µM, first compound 10 µM
[7] = second compound 0.01 µM, first compound 0.0316 µM
[8] = second compound 0.01 µM, first compound 0.1 µM
[9] = second compound 0.01 µM, first compound 0.316 µM
[10] = second compound 0.01 µM, first compound 1 µM
[11] = second compound 0.01 µM, first compound 3.16 µM
[12] = second compound 0.01 µM, first compound 10 µM
[13] = second compound 0.0316 µM, first compound 0.0316 µM
[14] = second compound 0.0316 µM, first compound 0.1 µM
[15] = second compound 0.0316 µM, first compound 0.316 µM
[16] = second compound 0.0316 µM, first compound 1 µM
[17] = second compound 0.0316 µM, first compound 3.16 µM
[18] = second compound 0.0316 µM, first compound 10 µM
[19] = second compound 0.1 µM, first compound 0.0316 µM
[20] = second compound 0.1 µM, first compound 0.1 µM
[21] = second compound 0.1 µM, first compound 0.316 µM
[22] = second compound 0.1 µM, first compound 1 µM
[23] = second compound 0.1 µM, first compound 3.16 µM
[24] = second compound 0.1 µM, first compound 10 µM
[25] = second compound 0.316 µM, first compound 0.0316 µM
[26] = second compound 0.316 µM, first compound 0.1 µM
[27] = second compound 0.316 µM, first compound 0.316 µM
[28] = second compound 0.316 µM, first compound 1 µM
[29] = second compound 0.316 µM, first compound 3.16 µM
[30] = second compound 0.316 µM, first compound 10 µM
[31] = second compound 1 µM, first compound 0.0316 µM
[32] = second compound 1 µM, first compound 0.1 µM
[33] = second compound 1 µM, first compound 0.316 µM
[34] = second compound 1 µM, first compound 1 µM
[35] = second compound 1 µM, first compound 3.16 µM
[36] = second compound 1 µM, first compound 10 µM
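Also: spheroids exposed to compounds for seven days before reading.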

CC1(C)CCC(CN2CCN(c3ccc(C(=O)NS(=O)(=O)c4ccc(NCC5CCOCC5)c([N+](=O)[O-])c4)c(Oc4cnc5[nH]ccc5c4)c3)CC2)=C(c2ccc(Cl)cc2)C1 + CC(Nc1ccc2c(c1)OCCn1cc(N3C(=O)OCC3C(F)F)nc1-2)C(N)=O
IC50 (second compound 0.00316 µM): 7.88 µM | IC50 (second compound 0.01 µM): > 10 µM | IC50 (second compound 0.0316 µM): 7.6 µM | IC50 (second compound 0.1 µM): 7.73 µM | IC50 (second compound 0.316 µM): 6.74 µM | IC50 (second compound 1 µM): > 10 µM | viability, T/C [1]: 113% | viability, T/C [2]: 100% | viability, T/C [3]: 96.6% | viability, T/C [4]: 118% | viability, T/C [5]: 93.2% | viability, T/C [6]: 38.8% | viability, T/C [7]: 94.2% | viability, T/C [8]: 104% | viability, T/C [9]: 118% | viability, T/C [10]: 98.3% | viability, T/C [11]: 89.4% | viability, T/C [12]: 51.7% | viability, T/C [13]: 96.1% | viability, T/C [14]: 113% | viability, T/C [15]: 95.3% | viability, T/C [16]: 88.9% | viability, T/C [17]: 101% | viability, T/C [18]: 34.6% | viability, T/C [19]: 98.9% | viability, T/C [20]: 92.2% | viability, T/C [21]: 92.4% | viability, T/C [22]: 92.5% | viability, T/C [23]: 98.6% | viability, T/C [24]: 37.1% | viability, T/C [25]: 88.1% | viability, T/C [26]: 89% | viability, T/C [27]: 84.3% | viability, T/C [28]: 89.6% | viability, T/C [29]: 83.1% | viability, T/C [30]: 32.7% | viability, T/C [31]: 69.2% | viability, T/C [32]: 81.7% | viability, T/C [33]: 94.8% | viability, T/C [34]: 66% | viability, T/C [35]: 77.8% | viability, T/C [36]: 52.3%

C[C@@H](NC(=O)c1ncnc(N)c1Cl)c1ncc(C(=O)Nc2cc(C(F)(F)F)c(Cl)cn2)s1 + CC(Nc1ccc2c(c1)OCCn1cc(N3C(=O)OCC3C(F)F)nc1-2)C(N)=O
IC50 (second compound 0.00316 µM): > 10 µM | IC50 (second compound 0.01 µM): > 10 µM | IC50 (second compound 0.0316 µM): > 10 µM | IC50 (second compound 0.1 µM): > 10 µM | IC50 (second compound 0.316 µM): > 10 µM | IC50 (second compound 1 µM): > 10 µM | viability, T/C [1]: 94.6% | viability, T/C [2]: 117% | viability, T/C [3]: 127% | viability, T/C [4]: 75.7% | viability, T/C [5]: 136% | viability, T/C [6]: 96.7% | viability, T/C [7]: 99.2% | viability, T/C [8]: 71.4% | viability, T/C [9]: 115% | viability, T/C [10]: 87.5% | viability, T/C [11]: 98.3% | viability, T/C [12]: 108% | viability, T/C [13]: 84.9% | viability, T/C [14]: 104% | viability, T/C [15]: 115% | viability, T/C [16]: 103% | viability, T/C [17]: 112% | viability, T/C [18]: 90.3% | viability, T/C [19]: 105% | viability, T/C [20]: 112% | viability, T/C [21]: 104% | viability, T/C [22]: 96.8% | viability, T/C [23]: 97.7% | viability, T/C [24]: 93% | viability, T/C [25]: 72.5% | viability, T/C [26]: 103% | viability, T/C [27]: 105% | viability, T/C [28]: 88.2% | viability, T/C [29]: 86.7% | viability, T/C [30]: 97.2% | viability, T/C [31]: 68.7% | viability, T/C [32]: 73.4% | viability, T/C [33]: 67.5% | viability, T/C [34]: 79.3% | viability, T/C [35]: 94.4% | viability, T/C [36]: 83.9%
